From BindingDB's records for doi:10.1111/cbdd.12118 (Bombay College of Pharmacy, 2013)

Biological target: T1, Enoyl-acyl carrier reductase (Plasmodium falciparum, UniProt Q9BH77)
T1 sequence (Q9BH77 whole entry): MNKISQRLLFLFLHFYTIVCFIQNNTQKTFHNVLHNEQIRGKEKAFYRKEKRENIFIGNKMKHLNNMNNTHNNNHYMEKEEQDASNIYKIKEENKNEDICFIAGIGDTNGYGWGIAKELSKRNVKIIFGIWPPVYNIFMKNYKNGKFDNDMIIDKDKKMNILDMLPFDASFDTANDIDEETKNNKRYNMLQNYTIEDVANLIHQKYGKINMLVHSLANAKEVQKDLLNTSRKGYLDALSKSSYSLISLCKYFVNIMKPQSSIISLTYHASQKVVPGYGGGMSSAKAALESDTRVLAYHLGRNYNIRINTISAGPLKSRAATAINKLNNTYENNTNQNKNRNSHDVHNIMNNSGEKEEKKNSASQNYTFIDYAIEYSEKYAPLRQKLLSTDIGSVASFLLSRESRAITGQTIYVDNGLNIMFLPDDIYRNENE
Assay: Fabl Assay
Conditions: pH 7.4
From the text: Inhibition assay using pfENR.

## O=C(CNc1ccccc1)N/N=C/c1ccccc1Cl [Phenylaminoacetic acid benzylidene hydrazine analog, 1]
  IC50: 90 µM

## COc1ccc(/C=N/NC(=O)CNc2ccccc2)cc1OC [Phenylaminoacetic acid benzylidene hydrazine analog, 2]
  IC50: > 159 µM

## COc1ccc(/C=N/NC(=O)CNc2ccc(Cl)cc2)cc1OC [Phenylaminoacetic acid benzylidene hydrazine analog, 3]
  IC50: > 143 µM

## O=C(CNc1ccc(Cl)cc1)N/N=C/c1ccccc1 [Phenylaminoacetic acid benzylidene hydrazine analog, 4]
  IC50: 10 µM

## O=C(CNc1ccc(F)cc1)N/N=C/c1ccccc1O [Phenylaminoacetic acid benzylidene hydrazine analog, 6]
  IC50: 12 µM

## CN(C)c1ccc(/C=N/NC(=O)CNc2ccc(F)cc2)cc1 [Phenylaminoacetic acid benzylidene hydrazine analog, 7]
  IC50: 8 µM

## O=C(CNc1ccccc1)N/N=C/c1ccccc1 [Phenylaminoacetic acid benzylidene hydrazine analog, 8]
  IC50: 197 µM

## O=C(CNc1ccccc1)N/N=C/c1cccc(Br)c1 [Phenylaminoacetic acid benzylidene hydrazine analog, 9]
  IC50: 90 µM

## O=C(CNc1ccccc1)N/N=C/c1ccccc1O [Phenylaminoacetic acid benzylidene hydrazine analog, 10]
  IC50: > 185 µM

## CN(C)c1ccc(/C=N/NC(=O)CNc2ccccc2)cc1 [Phenylaminoacetic acid benzylidene hydrazine analog, 11]
  IC50: > 168 µM

## O=C(CNc1cccc(F)c1Cl)N/N=C/c1ccccc1O [Phenylaminoacetic acid benzylidene hydrazine analog, 12]
  IC50: > 155 µM

## O=C(CNc1cccc(F)c1Cl)N/N=C/c1ccccc1 [Phenylaminoacetic acid benzylidene hydrazine analog, 13]
  IC50: > 163 µM

## O=C(CNc1cccc(F)c1Cl)N/N=C/c1ccccc1Cl [Phenylaminoacetic acid benzylidene hydrazine analog, 14]
  IC50: 29 µM

## O=C(CNc1cccc(F)c1Cl)N/N=C/c1cccc(Br)c1 [Phenylaminoacetic acid benzylidene hydrazine analog, 15]
  IC50: > 129 µM

## O=C(CNc1ccc(Cl)cc1)N/N=C/c1ccccc1O [Phenylaminoacetic acid benzylidene hydrazine analog, 16]
  IC50: > 164 µM

## O=C(CNc1ccc(Cl)cc1)N/N=C/c1cccc(Br)c1 [Phenylaminoacetic acid benzylidene hydrazine analog, 17]
  IC50: 7 µM

## O=C(CNc1ccc(F)cc1)N/N=C/c1ccccc1Cl [Phenylaminoacetic acid benzylidene hydrazine analog, 18]
  IC50: 163 µM

## O=C(CNc1cccc(Cl)c1)N/N=C/c1ccccc1 [Phenylaminoacetic acid benzylidene hydrazine analog, 19]
  IC50: 173 µM

## O=C(CNc1cccc(Cl)c1)N/N=C/c1ccccc1Cl [Phenylaminoacetic acid benzylidene hydrazine analog, 20]
  IC50: 77 µM

## O=C(CNc1cccc(Cl)c1)N/N=C/c1cccc(Br)c1 [Phenylaminoacetic acid benzylidene hydrazine analog, 21]
  IC50: 163 µM
